Experimental data as given in patent US20250009743A1, “METHODS OF TREATING CANCERS USING STING AGONISTS” (Dana-Farber Cancer Institute, Inc., priority 2021, published 2025).

How the values were obtained:
[1] = system: BP tumor cells; assay: DNA damage in BP tumor cells (cytosolic dsDNA staining, γ-H2AX flow cytometry); assay type: cell-based, mouse
Protocol: For flow cytometry analyses of tumor and TDLN samples, single-cell suspensions were obtained as described above (Tissue Digestion). Cells were stained in cold FACS buffer (PBS containing 0.2% BSA and 5 mM EDTA) with LIVE/DEAD Fixable Aqua Dead Cell Stain (Thermo Fisher) for 30 min on ice, followed by blocking with anti-CD16/32 (BioLegend) for 20 min on ice. Cells were then incubated in FACS buffer for 30 min on ice with antibodies specific to CD45 (clone 30-F11, BioLegend), TCR β chain (clone H57-597, BioLegend), CD38 (clone 145-2C11, BioLegend), CD4 (clone RM4-5, BioLegend), CD8a (clone 53-6.7, BioLegend), PD-1 (clone 29F.1A12, BioLegend), CD44 (clone IM7, BioLegend), CD62L (clone MEL-14, BioLegend), IFN-γ (clone XMG1.2, BioLegend), TNF-α (clone MP6-XT22, BioLegend), Granzyme B (clone NGZB, eBioscience), CD11c (clone N418, BioLegend), I-A/I-E (clone M5/114.15.2, BioLegend), CD80 (clone 16-10A1, BioLegend), CD86 (clone GL-1, BioLegend), CD103 (clone 2E7, BioLegend), CD11b (M1/70, BioLegend), F4/80 (clone BM8, BioLegend), phospho-TBK1 (Ser172) (clone D52C2, Cell Signaling Tech.) or phospho-IRF-3 (Ser396) (clone D601M, Cell Signaling Tech.). For intracellular staining, Foxp3/Transcription Factor Staining Buffer Set (eBioscience, #00-5523-00) was used for fixation and permeabilization. For cytokine analysis, cells were stimulated with Leukocyte Activation Cocktail with protein transport inhibitor Brefeldin A (BD Biosciences, #550583) at 37° C. for 4 hours prior to the staining. Analysis of ϵ-HA2X (Ser139) was performed according to manufacturer's instructions. Briefly, ice-cold 70% ethanol (Decon) was added dropwise to the cell pellet while vortexing. Cells were then incubated at −20° C. for 1 hour and washed three times with cold staining buffer. […] All data were analyzed using FlowJo software.
BRCA1-deficient tumor cells were cultured on glass coverslips in 6-well plates. […] Fluorescence intensity of cytosolic dsDNA were analyzed using ImageJ/Fiji software as described in Pantelidou C, et al. Cancer Discov 2019; 9 (6): 722-37.

[2] = system: PBM-R tumors; assay: Flow cytometry of tumor-infiltrating immune cells in PBM-R tumor-bearing mice; assay type: in vivo, mouse; details: 14 days; for STING pathway and activated (CD86^+) conventional DCs (cDCs): FIG. 23D
Protocol: Tumors were chopped and digested in collagenase buffer as described previously (Ding et al., 2018 Cell Rep 25, 2972-2980.e2975). Single cell suspensions of tumor and ascites were obtained by filtering through 70 um strainers and treated with 1× eBioscience RBC lysis buffer (Thermo Fisher) before staining. Single cells suspensions were incubated with LIVE/DEAD Fixable Aqua Dead Cell Stain (Life Technologies, Cat #L34965) for 30 min and then blocked with anti-CD16/32 (Biolegend, clone 93) for 20 min on ice. Samples were then incubated with appropriate antibodies for 30 min on ice. Foxp3 staining buffer set (eBioscience, Cat #00-5523-00) was applied for intracellular markers staining. For the intracellular cytokine analysis, cells were stimulated with Leukocyte Activation Cocktail (BD Biosciences, Cat #550583) at 37° C. for 4-6 hours prior to FACS staining. The following antibodies were used in this study: antibodies were purchased from BioLegend unless otherwise indicated: CD45 (clone 30-F11), CD3ε (clone 145-2C11), CD4 (clone RM4-5), CD8 (clone 53-6.7), CD44 (clone IM7), CD62L (MEL-14), CD25 (PC61), IFNγ (clone XMG1.2), TNFα (clone MP6-XT22), CD11b (clone M1/70), CD11c […], F4/80 (clone BM8), Ly-6C (clone HK1.4), Ly-6G (clone 1A8), MHC-II (clone M5/114.15.2), CD80 (clone 16-10A1), CD86 (clone GL-1), MHC-I (clone KH114), FoxP3 (clone FJK-16 s; eBioscience), Phospho-IRF-3 (Ser396) (clone D601M, Cell signaling technology) and Phospho-TBK1/NAK (Ser172) (clone D52C2, Cell signaling technology). The following human antibodies were used in this study: cell surface markers includes CD45 (clone H130), CD11b (clone M1/70), CD11c (clone Bu15), CD80 (clone 2D10), CD86 (clone IT2.2), CD14 (clone 63D3), CD15 […], HLA-DR (clone L243) and HLA-A,B,C (clone W6/32); intracellular markers include CD163 (clone GHI/61), CD68 (clone Y1/82A) and CD206 (clone 15-2). Flow cytometry was performed on an LSRII (BD Biosciences) or Fortessa HTS (BD Biosciences) at DFCI Flow Cytometry Core, and all the data were analyzed using FlowJo software.

## Cc1ccc2c(=O)c3cccc(CC(=O)O)c3oc2c1C [DMXAA, 5,6-dimethyl-xanthenone-4-acetic acid]
[1]; BP cells treated with CM of DMXAA-pre-treated TEMs, FIG. 7I
  BP cells' DNA damage (gH2AX) in response to olaparib: restored

## O=C(c1cc(Cc2n[nH]c(=O)c3ccccc23)ccc1F)N1CCN(C(=O)C2CC2)CC1 [olaparib]
[2]
  STING pathway and activated (CD86^+) conventional DCs (cDCs): activated the STING pathway and increased tumor-infiltrating activated (CD86^+) conventional DCs
[1]; 5 μM olaparib, two days, FIG. 5B
  cytosolic dsDNA: induced accumulation of cytosolic dsDNAs
[1]; olaparib, FIG. 5C
  γ-H2AX: two-fold increase

## COc1cc2cc(C(=O)CCC(=O)O)sc2cc1OC [MSA-2]
[2]; FIG. 23B
  proportion of TAMs: dramatically decreased
[2]; FIG. 23C
  ratio of M1/M2: increase
[2]
  STING pathway and activated (CD86^+) conventional DCs (cDCs): activated the STING pathway and increased tumor-infiltrating activated (CD86^+) conventional DCs
